Data as given in article PMC9987361, “Interaction of hemorphins with ACE homologs” (Scientific Reports, 2023).
Where two headings read alike, the source gives them in different places. No end group written: not given here.

Key:
ACE2 = system: ACE2; set-up: method as in printed at the sentence; details: clinically used ACE1 inhibitors; background statement, ref not given; cited from earlier work
ACE1 = molecular target: T1, ACE1 (Homo sapiens, UniProt P12821); assay: In vitro ACE1 inhibition assay (colorimetric ACE1 Kit-WST, absorbance 450 nm); assay type: biochemical
T1 construct: purchased Dojindo Laboratories
Method: ACE1 inhibition was measured using the absorbance-based colorimetric ACE1 Kit-WST (Dojindo Laboratories, Mashiki-machi, Japan) according to the kit instructions. […] The 18 peptides (Table 2) were initially screened in a single run at concentrations of 0, 10, 50, 100, 200, and 500 µM. […] In a 96-well microplate, 20 µL of each hemorphin concentration was pipetted into each well. In addition, 20 µL and 40 µL of deionized water were pipetted into blank 1 and blank 2 wells, respectively, and 20 µL of substrate buffer and 20 µL of enzyme working solution were pipetted into each sample well and blank 1 well.
The microplate was incubated at 37 °C for 1 h. After incubation, 200 µL of indicator working solution was pipetted to each well and then incubated for 5 min at room temperature.
The absorbance was then measured at 450 nm using a Glomax Discover Microplate Reader (Promega, Madison, WI, USA). ACE1 inhibition was measured using the equation given below: Inhibitionrate%=Blank1-Sample/Blank1-Blank2×100 where Blank1 (without a sample but with enzyme working solution) and Blank2 (without a sample and no enzyme working solution) are 20 µL and 40 µL deionized water, respectively.
The half-maximal inhibitory concentration (IC50) was determined using GraphPad Prism version 9 (GraphPad, San Diego, CA) from a nonlinear regression inhibition plot against the peptide concentration.

[1] = Dissolution of purchased peptides during sample preparation; assay type: physicochemical; details: sample preparation for ACE1 screening
Method: All the purchased peptides were screened in an initial run at 0, 10, 50, 100, 200, and 500 µM.

[2] = IC50 (μM) ± SD against ACE1, mean ± SD of three independent experiments (triplicate runs)
[3] = IC50 values of initial single-run peptide screening, single run at 0, 10, 50, 100, 200 and 500 µM, unit not given for IC50

T1 sequence (P12821 30-1306): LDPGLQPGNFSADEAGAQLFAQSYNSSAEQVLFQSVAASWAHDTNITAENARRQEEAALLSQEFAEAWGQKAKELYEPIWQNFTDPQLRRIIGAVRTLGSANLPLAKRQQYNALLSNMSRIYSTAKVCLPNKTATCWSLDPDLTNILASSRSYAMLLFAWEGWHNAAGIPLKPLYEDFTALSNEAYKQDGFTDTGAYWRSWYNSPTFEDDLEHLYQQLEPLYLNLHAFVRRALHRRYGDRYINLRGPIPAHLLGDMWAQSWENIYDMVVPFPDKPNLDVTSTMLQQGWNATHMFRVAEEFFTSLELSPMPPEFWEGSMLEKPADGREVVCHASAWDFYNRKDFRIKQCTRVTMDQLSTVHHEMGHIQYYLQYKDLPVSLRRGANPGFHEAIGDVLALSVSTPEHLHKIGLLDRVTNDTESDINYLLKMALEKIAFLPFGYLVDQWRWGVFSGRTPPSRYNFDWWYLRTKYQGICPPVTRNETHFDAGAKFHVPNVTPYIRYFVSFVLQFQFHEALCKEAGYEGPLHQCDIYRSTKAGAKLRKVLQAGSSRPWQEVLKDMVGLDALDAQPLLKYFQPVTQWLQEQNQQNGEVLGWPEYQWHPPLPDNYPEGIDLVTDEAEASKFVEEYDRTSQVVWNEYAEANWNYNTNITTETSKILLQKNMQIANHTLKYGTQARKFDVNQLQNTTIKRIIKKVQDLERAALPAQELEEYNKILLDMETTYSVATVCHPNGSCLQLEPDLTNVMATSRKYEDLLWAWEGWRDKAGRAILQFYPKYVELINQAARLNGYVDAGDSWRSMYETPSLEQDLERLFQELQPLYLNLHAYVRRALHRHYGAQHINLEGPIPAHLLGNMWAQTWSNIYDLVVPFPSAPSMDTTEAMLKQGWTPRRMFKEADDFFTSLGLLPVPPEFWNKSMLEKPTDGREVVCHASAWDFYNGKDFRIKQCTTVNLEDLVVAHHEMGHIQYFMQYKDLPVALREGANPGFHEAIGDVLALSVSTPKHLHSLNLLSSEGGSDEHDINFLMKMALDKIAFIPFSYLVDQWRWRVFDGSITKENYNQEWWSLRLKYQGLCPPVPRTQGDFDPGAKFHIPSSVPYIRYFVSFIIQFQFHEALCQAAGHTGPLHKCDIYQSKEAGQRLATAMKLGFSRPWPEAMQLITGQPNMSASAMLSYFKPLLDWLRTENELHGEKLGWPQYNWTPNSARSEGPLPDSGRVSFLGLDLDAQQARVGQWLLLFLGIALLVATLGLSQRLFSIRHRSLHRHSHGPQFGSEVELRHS

Molecule | IC50 (ACE1; [2]) [µM] | IC50 (ACE1; [3]) [µM] | also measured
NCCCC[C@H](N[C@@H](CCc1ccccc1)C(=O)O)C(=O)N1CCC[C@H]1C(=O)O [lisinopril] |  |  | Activity against ACE2 (ACE2): inactivity
VVYPWTQR [VVHem6] | 12.7 | 30.3 | 
YPWTRRF [Camel Hem7, Tyr-Pro-Trp-Thr-Arg-Arg-Phe] | 23.6 ± 3.7 | 44.1 | 
LVVYPWTR [Camel LVVHem5] | 6.88 ± 1.89 | 21.2 | 
VVYPWTRR [Camel VVHem6] |  | 44.1 | 
CC(C)C[C@H](N)C(=O)N[C@H](C(=O)N[C@H](C(=O)N[C@@H](Cc1ccc(O)cc1)C(=O)N1CCC[C@H]1C(=O)N[C@@H](Cc1c[nH]c2ccccc12)C(=O)N[C@H](C(=O)N[C@@H](CCCNC(=N)N)C(=O)N[C@@H](CCCNC(=N)N)C(=O)N[C@@H](Cc1ccccc1)C(=O)O)[C@@H](C)O)C(C)C)C(C)C [Camel LVVHem7] | 11.1 ± 2.18 | 25.8 | 
LVVYPWTRR [Camel LVVHem6] | 5.12 ± 0.7 | 25.9 | 
Tyr-Pro-Trp-Thr-Gln (YPWTQ; printed: Tyr-Pro-Trp-Thr-Gln) [Hem5] |  |  | Dissolution during sample preparation [1]: did not dissolve
LVVYPWTQ [LVVHem5] | 20.1 ± 1.33 | 36.7 | 
VVYPWTRRF [Camel VVHem7] |  | 51.4 | 
YPWTR [Camel Hem5, Tyr-Pro-Trp-Thr-Arg] |  |  | IC50 (ACE1): 78.8 µM
YPWTQR [Hem6, Tyr-Pro-Trp-Thr-Gln-Arg] |  | 80.2 | 
CC(C)C[C@H](N)C(=O)N[C@H](C(=O)N[C@H](C(=O)N[C@@H](Cc1ccc(O)cc1)C(=O)N1CCC[C@H]1C(=O)N[C@@H](Cc1c[nH]c2ccccc12)C(=O)N[C@H](C(=O)N[C@@H](CCC(N)=O)C(=O)N[C@@H](CCCNC(=N)N)C(=O)N[C@@H](Cc1ccccc1)C(=O)O)[C@@H](C)O)C(C)C)C(C)C [LVVHem7] | 13.1 ± 2.87 | 29.3 | 
YPWTRR [Camel Hem6] |  |  | Dissolution during sample preparation [1]: did not dissolve
LVVYPWTQR [LVVHem6] | 6.45 | 14.9 | 
C[C@H](CS)C(=O)N1CCC[C@H]1C(=O)O [captopril] |  |  | Activity against ACE2 (ACE2): inactivity
Tyr-Pro-Trp-Thr [Hem4] |  |  | IC50 values of initial single-run peptide screening (ACE1; single run at 0, 10, 50, 100, 200 and 500 µM, unit not given for IC50): No IC50
YPWTQRF [Hem7, Tyr-Pro-Trp-Thr-Gln-Arg-Phe] |  | 95.1 | 
